Assay results as given in patent US8653100B2 (AbbVie Inc., priority 2008, dated 2014).
Structures can show the parent of a compound that is named as a salt.

Biological target: human GlyT1c transporter (Homo sapiens (Human), UniProt P48067)
Experiment: Radioligand binding assay using recombinant CHO cell membranes expressing human GlyT1
Conditions: examples 88-204, radioligand not specified by footnote, read-out: radioligand binding Kiapp
Protocol: 2. Radioligand binding assays using recombinant CHO cell membranes expressing human GlyT1:
Radioligand binding to human GlyT1c transporter-expressing membranes was carried out as described in Mezler et al., Molecular Pharmacology 74:1705-1715, 2008.
More specifically, [^3H]-(R)-NPTS radioligand binding to human GlyT1c transporter-expressing membranes was measured in duplicate in a total volume of 200 μl in 96-well plates. To 100 μl of membrane suspension (yielding a final membrane protein concentration of 50 μg/ml) in assay buffer (120 mM NaCl, 2 mM KCl, 10 mM Hepes, 1 mM MgCl2, 1 mM CaCl2, pH 7.5) […] of [^3H]-(R)-NPTS (0.5 nM final) were added in assay buffer. For competition experiments 10 μl of buffer or unlabeled compound solution obtained from dilution series of test compounds in DMSO followed. An intermediate 1:10 dilution in assay buffer yielded a final DMSO concentration of 1%. Non-specific binding was determined in the presence of 10 μM Org24598 (or its racemate Org24461) for [^3H]-(R)-NPTS. After incubation at room temperature for 1 h, the incubation mixture was harvested (Tomtec Mach III U Harvester) through 96-well GF/B filter plates (PerkinElmer), presoaked for 1 h with 40 μl per well of 0.1% polyethylene-imine (PEI). After washing twice with ice-cold 50 mM Tris-HCl pH 7.4 buffer, drying and addition of 35 μl scintillator (BetaplateScint, PerkinElmer) per well followed. The radioactivity was determined by liquid scintillation spectrometry in a MicroBeta (PerkinElmer) plate counter.
Data analysis: For binding of [^3H]-(R)-NPTS to cell membranes, the calculation of Kd and Bmax values from the saturation binding assays and the IC50 values from the displacement binding was performed by iterative non-linear regression analysis adapted from the ‘Ligand’ program (Munson and Rodbard, 1980). Radioligand displacement curves in absence or in presence of increasing concentrations of tested compounds were fitted using a one-site fit and the apparent Ki values were calculated from the IC50 values using the Cheng-Prusoff equation (Cheng and Prusoff 1973).

Chain of human GlyT1c transporter (P48067 whole entry): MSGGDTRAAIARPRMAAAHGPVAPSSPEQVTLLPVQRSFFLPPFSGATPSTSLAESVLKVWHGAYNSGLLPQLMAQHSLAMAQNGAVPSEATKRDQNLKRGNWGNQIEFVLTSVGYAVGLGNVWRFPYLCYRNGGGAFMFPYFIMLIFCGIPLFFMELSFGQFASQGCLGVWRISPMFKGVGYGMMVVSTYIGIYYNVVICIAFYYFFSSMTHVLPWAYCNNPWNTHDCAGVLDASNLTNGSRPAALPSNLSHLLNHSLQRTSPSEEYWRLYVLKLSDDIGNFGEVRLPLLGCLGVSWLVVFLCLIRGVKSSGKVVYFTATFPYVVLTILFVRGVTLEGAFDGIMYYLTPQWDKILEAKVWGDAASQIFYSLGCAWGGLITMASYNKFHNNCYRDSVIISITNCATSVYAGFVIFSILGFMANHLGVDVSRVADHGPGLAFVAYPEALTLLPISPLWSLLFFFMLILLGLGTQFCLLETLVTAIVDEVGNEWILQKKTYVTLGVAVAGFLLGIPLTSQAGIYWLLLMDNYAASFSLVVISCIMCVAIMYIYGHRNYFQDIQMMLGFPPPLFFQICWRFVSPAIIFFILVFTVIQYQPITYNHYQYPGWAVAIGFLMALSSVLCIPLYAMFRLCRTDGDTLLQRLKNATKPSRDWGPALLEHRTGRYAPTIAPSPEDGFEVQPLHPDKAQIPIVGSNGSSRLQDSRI

Ki [µM]	Structure (SMILES)
≤ 1	O=S(=O)(CCCOc1ccc2c(c1)C(C1(c3ccc(Cl)cc3)CCC1)NCC2)Nc1ccccn1 (stereo not shown) [Example 109, 3-({1-[1-(4-Chlorophenyl)cyclobutyl]-1,2,3,4-tetrahydroisoquinolin-7-yl}oxy)-N-(pyridin-2-yl)propane-1-sulfonamide dihydrochloride]
≤ 10	O=S(=O)(NCCOc1ccc2c(c1)C(C1(c3ccc(Cl)cc3)CCC1)NCC2)C1CCCNC1 (single isomer, unassigned) [Example 192, N-[2-({1-[1-(4-Chlorophenyl)cyclobutyl]-1,2,3,4-tetrahydroisoquinolin-7-yl}oxy)ethyl]piperidine-3-sulfonamide dihydrochloride]
≤ 100	Nc1n[nH]c(S(=O)(=O)NCCOc2ccc3c(c2)C(C2(c4ccc(Cl)cc4)CCC2)NCC3)n1 (stereo not shown) [Example 203, 3-Amino-N-[2-({1-[1-(4-chlorophenyl)cyclobutyl]-1,2,3,4-tetrahydroisoquinolin-7-yl}oxy)ethyl]-1H-1,2,4-triazole-5-sulfonamide dihydrochloride]
≤ 0.1	CCCS(=O)(=O)NCCNc1ccc2c(c1)C(C1(c3ccc(Cl)cc3)CCC1)NCC2 (stereo not shown) [Example 89, N-[2-({1-[1-(4-Chlorophenyl)cyclobutyl]-1,2,3,4-tetrahydroisoquinolin-7-yl}amino)ethyl]propane-1-sulfonamide dihydrochloride]
≤ 0.1	O=S(=O)(NCCOc1ccc2c(c1)C(C1(c3ccc(Cl)cc3)CCC1)NCC2)C1CCNC1 (stereo not shown) [Example 159, N-[2-({1-[1-(4-Chlorophenyl)cyclobutyl]-1,2,3,4-tetrahydroisoquinolin-7-yl}oxy)ethyl]pyrrolidine-3-sulfonamide dihydrochloride]
≤ 0.1	O=S(=O)(CCO)NCCOc1ccc2c(c1)C(C1(c3ccc(Cl)cc3)CCC1)NCC2 (stereo not shown) [Example 97, N-[2-({1-[1-(4-Chlorophenyl)cyclobutyl]-1,2,3,4-tetrahydroisoquinolin-7-yl}oxy)ethyl]-2-hydroxyethanesulfonamide hydrochloride]
≤ 0.1	CN(C)S(=O)(=O)NCCOc1ccc2c(c1)C(C1(c3ccc(Cl)cc3)CCC1)NCC2 (stereo not shown) [Example 143, N′-[2-({1-[1-(4-Chlorophenyl)cyclobutyl]-1,2,3,4-tetrahydroisoquinolin-7-yl}oxy)ethyl]-N,N-dimethylsulfuric diamide hydrochloride]
≤ 10	NCCCCS(=O)(=O)NCCOc1ccc2c(c1)C(C1(c3ccc(Cl)cc3)CCC1)NCC2 (stereo not shown) [Example 184, 4-Amino-N-[2-({1-[1-(4-chlorophenyl)cyclobutyl]-1,2,3,4-tetrahydroisoquinolin-7-yl}oxy)ethyl]butane-1-sulfonamide (2E)-but-2-enedioate]
≤ 10	O=S(=O)(NCCOc1ccc2c(c1)C(C1(c3ccc(Cl)cc3)CCC1)NCC2)c1ncn[nH]1 (stereo not shown) [Example 199, N-[2-({1-[1-(4-Chlorophenyl)cyclobutyl]-1,2,3,4-tetrahydroisoquinolin-7-yl}oxy)ethyl]-1H-1,2,4-triazole-5-sulfonamide]
≤ 0.1	CN(C)CCS(=O)(=O)NCCOc1ccc2c(c1)C(C1(c3ccc(Cl)cc3)CCC1)NCC2 (stereo not shown) [Example 149, N-[2-({1-[1-(4-Chlorophenyl)cyclobutyl]-1,2,3,4-tetrahydroisoquinolin-7-yl}oxy)ethyl]-2-(dimethylamino)ethanesulfonamide (2E)-but-2-enedioate]

Second part, the compound before the results:

Structure (SMILES)	Ki [µM]
CCCS(=O)(=O)Nc1ccc(Oc2ccc3c(c2)C(C2(c4ccc(Cl)cc4)CCC2)NCC3)nc1 (stereo not shown) [Example 119, N-[6-({1-[1-(4-Chlorophenyl)cyclobutyl]-1,2,3,4-tetrahydroisoquinolin-7-yl}oxy)pyridin-3-yl]propane-1-sulfonamide dihydrochloride]	≤ 10
O=S(=O)(NCCOc1ccc2c(c1)C(C1(c3ccc(Cl)cc3)CCC1)NCC2)c1cn[nH]c1 (stereo not shown) [Example 153, N-[2-({1-[1-(4-Chlorophenyl)cyclobutyl]-1,2,3,4-tetrahydroisoquinolin-7-yl}oxy)ethyl]-1H-pyrazole-4-sulfonamide hydrochloride]	≤ 0.1
O=S(=O)(NCCOc1ccc2c(c1)C(C1(c3ccc(Cl)cc3)CCC1)NCC2)C1CCNC1 (single isomer, unassigned) [Example 148, N-[2-({1-[1(4-Chlorophenyl)cyclobutyl]-1,2,3,4-tetrahydroisoquinolin-7-yl}oxy)ethyl]pyrrolidine-3-sulfonamide dihydrochloride]	≤ 0.1
O=S(=O)(NCCOc1ccc2c(c1)C(C1(c3ccc(Cl)cc3)CCC1)NCC2)c1ncn[nH]1 (stereo not shown) [Example 204, N-[2-({1-[1-(4-Chlorophenyl)cyclobutyl]-1,2,3,4-tetrahydroisoquinolin-7-yl}oxy)ethyl]-1H-1,2,4-triazole-5-sulfonamide]	≤ 100
O=S(=O)(Nc1ccc(Oc2ccc3c(c2)C(C2(c4ccc(Cl)cc4)CCC2)NCC3)nc1)c1cccnc1 (stereo not shown) [Example 131, N-[6-({1-[1-(4-Chlorophenyl)cyclobutyl]-1,2,3,4-tetrahydroisoquinolin-7-yl}oxy)pyridin-3-yl]pyridine-3-sulfonamide trihydrochloride]	≤ 10
O=S(=O)(NCCOc1ccc2c(c1)C(C1(c3ccc(Cl)cc3)CCC1)NCC2)C1CCNC1 (single isomer, unassigned) [Example 172, N-[2-({1-[1-(4-Chlorophenyl)cyclobutyl]-1,2,3,4-tetrahydroisoquinolin-7-yl}oxy)ethyl]pyrrolidine-3-sulfonamide dihydrochloride]	≤ 10
COc1ccc(S(=O)(=O)NCCOc2ccc3c(c2)C(C2(c4ccc(Cl)cc4)CCC2)NCC3)cn1 (stereo not shown) [Example 156, N-[2-({1-[1-(4-Chlorophenyl)cyclobutyl]-1,2,3,4-tetrahydroisoquinolin-7-yl}oxy)ethyl]-6-methoxypyridine-3-sulfonamide hydrochloride]	≤ 0.1
Nc1ncc(S(=O)(=O)NCCOc2ccc3c(c2)C(C2(c4ccc(Cl)cc4)CCC2)NCC3)s1 (stereo not shown) [Example 163, 2-Amino-N-[2-({1-[1-(4-chlorophenyl)cyclobutyl]-1,2,3,4-tetrahydroisoquinolin-7-yl}oxy)ethyl]-1,3-thiazole-5-sulfonamide dihydrochloride]	≤ 1
Cn1cc(S(=O)(=O)NCc2ccc3c(c2)C(C2(c4ccc(Cl)cc4)CCC2)NCC3)cn1 (stereo not shown) [Example 91, N-({1-[1-(4-Chlorophenyl)cyclobutyl]-1,2,3,4-tetrahydroisoquinolin-7-yl}methyl)-1-methyl-1H-pyrazole-4-sulfonamide trifluoroacetate]	≤ 0.1
O=S(=O)(NCCOc1ccc2c(c1)C(C1(c3ccc(Cl)cc3)CCC1)NCC2)c1ccc(CCF)cc1 (stereo not shown) [Example 110, N-[2-({1-[1-(4-Chlorophenyl)cyclobutyl]-1,2,3,4-tetrahydroisoquinolin-7-yl}oxy)ethyl]-4-(2-fluoroethyl)benzenesulfonamide hydrochloride]	≤ 1
CCCS(=O)(=O)NCCOc1ccc2c(c1)C(C1(c3ccc(Cl)cc3)CCC1)N(C(C)=O)CC2 (stereo not shown) [Example 171, N-[2-({2-Acetyl-1-[1-(4-chlorophenyl)cyclobutyl]-1,2,3,4-tetrahydroisoquinolin-7-yl}oxy)ethyl]propane-1-sulfonamide]	≤ 10
NCCS(=O)(=O)NCCOc1ccc2c(c1)C(C1(c3ccc(Cl)cc3)CCC1)NCC2 (single isomer, unassigned) [Example 158, 2-Amino-N-[2-({1-[1-(4-chlorophenyl)cyclobutyl]-1,2,3,4-tetrahydroisoquinolin-7-yl}oxy)ethyl]ethanesulfonamide dihydrochloride]	≤ 0.1
Cn1cc(S(=O)(=O)NCCOc2ccc3c(c2)C(C2(c4ccc(Cl)cc4)CC(F)(F)C2)NCC3)cn1 (single isomer, unassigned) [Example 168, N-[2-({1-[1-(4-Chlorophenyl)-3,3-difluorocyclobutyl]-1,2,3,4-tetrahydroisoquinolin-7-yl}oxy)ethyl]-1-methyl-1H-pyrazole-4-sulfonamide]	≤ 1
CC(=O)N1CC(S(=O)(=O)NCCOc2ccc3c(c2)C(C2(c4ccc(Cl)cc4)CCC2)NCC3)C1 (stereo not shown) [Example 180, 1-Acetyl-N-[2-({1-[1-(4-chlorophenyl)cyclobutyl]-1,2,3,4-tetrahydroisoquinolin-7-yl}oxy)ethyl]azetidine-3-sulfonamide di[(2E)-but-2-enedioate]]	≤ 10
O=S(=O)(CCCF)NCCOc1ccc2c(c1)C(C1(c3ccccn3)CCC1)NCC2 (stereo not shown) [Example 104, 3-Fluoro-N-[2-({1-[1-(pyridin-2-yl)cyclobutyl]-1,2,3,4-tetrahydroisoquinolin-7-yl}oxy)ethyl]propane-1-sulfonamide hydrochloride]	≤ 0.1
